Measurements as given in patent US4704405A (priority 1986, dated 1987).
Values belong to the compound of their own block, whether it stands above or below them.

Tests used:
[1] = cited from earlier work; for bioavailability of the drug: tromethamine or sodium salts, British Pat. No. 2,059,768, German Pat. No. 134,672
[2] = in vivo

Structure (SMILES): CC(=O)Oc1ccccc1C(=O)O [aspirin]
bioavailability of the drug [1]: enhanced bioavailability

Structure (SMILES): COc1ccc2c(c1)c(CC(=O)O)c(C)n2C(=O)c1ccc(Cl)cc1 [indomethacin]
bioavailability of the drug [1]: enhanced bioavailability

absorption of sulindac [2]: Extremely rapid absorption
Structure (SMILES): CC1=C(CC(=O)O)c2cc(F)ccc2/C1=C\c1ccc([S+](C)[O-])cc1 (centres unmarked) [sodium sulindac]

Structure (SMILES): CC1=C(CC(=O)O)c2cc(F)ccc2C1=Cc1ccc([S+](C)[O-])cc1 (centres unmarked) [sulindac]
duration of action ([1]; NSAID, reduction-oxidation prodrug): long duration of action
onset of activity ([1]; sulindac, commercialized as CLINORIL): slow onset of activity
